Patent publication EP4650362A1, “NEUROPROTECTIVE PSD-95 POLYPEPTIDE INHIBITOR AND USE THEREOF” (Beijing Tuo Jie Biopharmaceutical Co. Ltd., priority 2023, dated 2024)
Read-outs that look alike come from different tables or passages of the source. Non-standard residues stand in square brackets, D forms with d. Residues, ends and D or L forms follow the SMILES beside them. No end group written: not given here. Tle = CC(C)(C)[C@H](N)C(=O)O; Dab = NCC[C@H](N)C(=O)O; Aib = CC(C)(N)C(=O)O

Experiments:
human PSD95-PDZ3 = biological target: T1, human PSD95-PDZ3 (Homo sapiens, UniProt P78352); assay: binding ELISA with Biotin-PDZ3
T1 construct: PDZ3 (309-401, Flag-His-Avitag-TEVsite tag); made in house
T1 sequence (P78352 309-401): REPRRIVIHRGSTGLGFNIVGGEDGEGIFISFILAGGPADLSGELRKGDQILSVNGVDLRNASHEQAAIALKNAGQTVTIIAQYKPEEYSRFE
Text: The three PDZ domains in the PSD95 protein are structurally similar. Binding to the PDZ1 and PDZ2 domains can effectively block PSD95-mediated neuroexcitotoxicity. However, the biological function of binding to the PDZ3 domain is unclear. Therefore, to avoid potential safety concerns, this test example assessed the selectivity of polypeptide compounds for the PDZ2 and PDZ3 domains, aiming to identify polypeptide compounds that specifically bind to the PDZ2 domain. The expression and purification of PSD95-PDZ3 protein were carried out with reference to the steps in 3.1.2. The amino acid sequence of PDZ3 protein: […] Site-specifically biotinylated Biotin-PDZ2 and Biotin-PDZ3 proteins were used for binding ELISA assays. […] After the blocking was complete, the blocking solution was discarded, and the plate was washed three times with PBST buffer. […] After the incubation was complete, the reaction solutions in the microplate were discarded, and the plate was washed three times with PBST. 100 μL of HRP-SA secondary antibody (diluted at 1:2000) was added to each well, and the plate was incubated at 37 °C for 1 h. After the plate was washed three times with PBST, 100 μL of TMB chromogenic substrate was added. […] The absorbance at 450 nm was measured using a SpectraMax M5 microplate reader, and the binding EC50 values of the test compounds to Biotin-PDZ2 or Biotin-PDZ3 were calculated using GraphPad Prism 9. […] The abilities of polypeptide compounds to bind to human PSD95-PDZ2 and human PSD95-PDZ3

rabbit whole blood = assay: hemolysis risk test in rabbit whole blood; assay type: cell-based; settings: concentration range of 1 to 50 µM
Experimental: Preparation of red blood cell suspension: 100 µL of fresh whole blood was collected, and 900 µL of 1× PBS solution was then added. The mixture was shaken on a plate shaker at 30 rpm for 5 min and then centrifuged at 1000 g for 5 min, and the supernatant was discarded. The above washing step was repeated until the supernatant no longer appeared red. The suspension was set aside for later use.
Preparation of test polypeptide solutions: An appropriate amount of 1× PBS solution was added to a powdered polypeptide, and the polypeptide was dissolved to form a standard stock solution. The stock solution was then diluted with 1× PBS to form test solutions with concentrations of 1, 3, 10, 30, 100, and 300 µg/mL, and two replicate wells were set for each concentration. Meanwhile, blank 1× PBS was used as a negative control, and a 1× PBS solution containing 0.1% Triton X-100 was used as a positive control.
Incubation: A test solution (500 µL) was added to the red blood cell suspension, and then the mixture was well shaken on a plate shaker at 30 rpm for 5 min, incubated at 37 °C for 1 h, and centrifuged at 1000 g for 5 min.
100 µL of the supernatant was transferred to a single well of a microplate. The absorbance at 540 nm was measured using a SpectraMax M5 microplate reader, and data analysis was performed using GraphPad Prism 9. The hemolysis rate (%) was calculated using the formula: (test sample absorbance - negative control absorbance) / (positive control absorbance - negative control absorbance) × 100%. A rate of less than 5% indicates the absence of hemolysis, while a rate of greater than 5% indicates the presence of hemolysis. Table 3. Testing of the hemolysis risk of the polypeptide compound
A method similar to that in section 3.3.2 was adopted, with the difference being that this test example used fresh rabbit whole blood instead.

[1] = pharmacokinetic study in rats, single intravenous bolus injection; assay type: in vivo, SD rats; settings: for Cmax: read-out: Cmax
Experimental: With male SD rats as test animals, the pharmacokinetic behavior of polypeptide compounds administered via single intravenous bolus injection in rats (plasma) was studied.
Male SD rats weighing 170 to 200 grams and aged 4-6 weeks were purchased from Beijing Vital River Laboratory Animal Technology Co., Ltd. The polypeptide compounds were dissolved in 1× PBS, and the polypeptide compound solutions were then administered via intravenous bolus injection over 10 min at a dose of 3 nmol/g, with three animals per group. At each of the time points of 2 min, 8 min, 15 min, 30 min, 45 min, 60 min, and 120 min after the end of bolus injection, 0.2 mL of blood was collected and transferred to an EDTA-K2 anticoagulation centrifuge tube. The whole blood sample was centrifuged at 4 °C at 4000 g for 5 min, and a plasma sample was obtained by separation and cryopreserved at -80 °C.
The pharmacokinetic parameters of polypeptide compound 22, administered via intravenous bolus injection, in rats were determined using a similar method, with the difference being that an enzyme inhibitor was added immediately after blood collection.
The plasma concentrations of the test compounds were determined using the method in Test Example 3.4.3. Plasma concentration-time curves were plotted, and the pharmacokinetic parameters were calculated using PKSolver software. The experimental results are shown in Table 5-1, Table 5-2, and FIG. 3.

human PSD95-PDZ2 = biological target: T2, human PSD95-PDZ2 (Homo sapiens, UniProt P78352); assay: binding ELISA with Biotin-PDZ2
T2 construct: PDZ2 (155-249, the Flag-His-Avitag-TEVsite tag is italicized); made in house; host or cells: E. coli BL21-DE3 (PET vector)
T2 sequence (P78352 155-249): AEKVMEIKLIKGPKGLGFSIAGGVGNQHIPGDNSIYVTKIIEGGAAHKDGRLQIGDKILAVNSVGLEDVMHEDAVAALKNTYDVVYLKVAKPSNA
Text: The three PDZ domains in the PSD95 protein are structurally similar. Binding to the PDZ1 and PDZ2 domains can effectively block PSD95-mediated neuroexcitotoxicity. However, the biological function of binding to the PDZ3 domain is unclear. Therefore, to avoid potential safety concerns, this test example assessed the selectivity of polypeptide compounds for the PDZ2 and PDZ3 domains, aiming to identify polypeptide compounds that specifically bind to the PDZ2 domain. Site-specifically biotinylated Biotin-PDZ2 and Biotin-PDZ3 proteins were used for binding ELISA assays. […] After the blocking was complete, the blocking solution was discarded, and the plate was washed three times with PBST buffer. […] After the incubation was complete, the reaction solutions in the microplate were discarded, and the plate was washed three times with PBST. 100 µL of HRP-SA secondary antibody (diluted at 1:2000) was added to each well, and the plate was incubated at 37 °C for 1 h. After the plate was washed three times with PBST, 100 µL of TMB chromogenic substrate was added. […] The absorbance at 450 nm was measured using a SpectraMax M5 microplate reader, and the binding EC50 values of the test compounds to Biotin-PDZ2 or Biotin-PDZ3 were calculated using GraphPad Prism 9. […] The abilities of polypeptide compounds to bind to human PSD95-PDZ2 and human PSD95-PDZ3

[2] = male, SD, rat, plasma, rats, intravenous bolus injection over 10 min, 3 nmol/g, n = 3
[3] = rats, intravenous bolus injection over 10 min, 3 nmol/g, n = 3
[4] = male, SD, rat, in vivo, 3 nmol/g, rats, intravenous bolus injection, enzyme inhibitor added immediately after blood collection, n = 3
[5] = male, SD, rat, plasma, 3 nmol/g, rats, intravenous bolus injection, enzyme inhibitor added immediately after blood collection, n = 3
[6] = rats, intravenous bolus injection, enzyme inhibitor added (Table 5-2)
[7] = rats, intravenous bolus injection, enzyme inhibitor added immediately after blood collection, n = 3

## CC[C@H](C)[C@H](NC(=O)[C@H](CO)NC(=O)[C@H](CO)NC(=O)[C@H](CC(C)C)NC(=O)[C@@H](CCCCN)NC(=O)[C@H](CCCNC(=N)N)NC(=O)[C@H](CCCNC(=N)N)NC(=O)[C@@H](CCCNC(=N)N)NC(=O)[C@H](CCC(N)=O)NC(=O)[C@@H](CCCNC(=N)N)NC(=O)[C@H](CCCNC(=N)N)NC(=O)[C@H](CCCCN)NC(=O)[C@H](CCCCN)NC(=O)[C@@H](CCCNC(=N)N)NC(=O)CNC(=O)[C@@H](N)Cc1ccc(O)cc1)C(=O)N[C@@H](CCC(=O)O)C(=O)N[C@@H](CO)C(=O)N[C@@H](CC(=O)O)C(=O)N[C@H](C(=O)O)C(C)C [NoNO42, YGrKKRrQrRRkLSSIESDV, reference compound] (H-YG[dR]KKR[dR]Q[dR]RR[dK]LSSIESDV-OH)
Human PSD95-PDZ3
  EC50: > 1000 µM
Rabbit whole blood
  hemolysis rates: less than 5%
[1]; male, SD, rat, in vivo, iv
  half-life: 2.4 min
[1]; rat, in vivo, iv
  AUClast/dose: 25
  half-lives: less than 3 min
Human PSD95-PDZ2
  EC50: 0.098 µM

## CC(C)[C@H](NC(=O)[C@H](CC(=O)O)NC(=O)[C@@H](NC(=O)[C@@H](NC(=O)[C@@H](NC(=O)[C@@H](NC(=O)[C@H](CCN)NC(=O)C(C)(C)NC(=O)CNC(=O)[C@@H](CCCNC(=N)N)NC(=O)[C@@H](CCCNC(=N)N)NC(=O)[C@@H](CCCNC(=N)N)NC(=O)[C@@H](CCC(N)=O)NC(=O)[C@@H](CCCNC(=N)N)NC(=O)[C@@H](CCCNC(=N)N)NC(=O)[C@@H](CCCCN)NC(=O)[C@@H](CCCCN)NC(=O)[C@@H](CCCNC(=N)N)NC(=O)CNC(=O)[C@H](N)Cc1ccc(O)cc1)[C@@H](C)O)C(C)(C)C)C(C)(C)C)[C@@H](C)O)C(=O)O [Polypeptide compound 14, y-G-r-k-k-r-r-q-r-r-r-G-Aib-Dab-T-Tle-Tle-T-D-V] (H-[dY]G[dR][dK][dK][dR][dR][dQ][dR][dR][dR]G[Aib][Dab]T[Tle][Tle]TDV-OH)
Human PSD95-PDZ3; plate coated with 2 µM test compound, Biotin-PDZ3 titrated, read-out: EC50 (PDZ3)
  EC50: > 1000 µM
Rabbit whole blood
  hemolysis rates: less than 5%
[1]; [2]
  AUC(0-inf): 9900 ng·h/mL
  MRT: 71.4 min
  Cmax: 15100 ng/mL
[1]; male, SD, rat, plasma, rats, intravenous bolus injection over 10 min, 3 nmol/g, n = 3, read-out: AUC(0-t)
  AUC(0-t): 7910 ng·h/mL
[1]; male, SD, rat, plasma, rats, intravenous bolus injection over 10 min, 3 nmol/g, n = 3, read-out: T1/2 (converted)
  half-life: 56.4 min
[1]; [3]
  AUClast/dose: 1041
Human PSD95-PDZ2; plate coated with 2 µM test compound, Biotin-PDZ2 titrated, read-out: EC50 (PDZ2)
  EC50: 0.076 µM

## CC(C)[C@H](NC(=O)[C@H](CC(=O)O)NC(=O)[C@@H](NC(=O)[C@@H](NC(=O)[C@@H](NC(=O)[C@@H](NC(=O)[C@H](CCN)NC(=O)C(C)(C)NC(=O)CNC(=O)[C@@H](CCCNC(=N)N)NC(=O)[C@H](CCCNC(=N)N)NC(=O)[C@H](CCCNC(=N)N)NC(=O)[C@H](CCC(N)=O)NC(=O)[C@@H](CCCNC(=N)N)NC(=O)[C@H](CCCNC(=N)N)NC(=O)[C@H](CCCCN)NC(=O)[C@H](CCCCN)NC(=O)[C@H](N)CCCNC(=N)N)[C@@H](C)O)C(C)(C)C)C(C)(C)C)[C@@H](C)O)C(=O)O [Polypeptide compound 22, r-K-K-R-r-Q-R-R-r-G-Aib-Dab-T-Tle-Tle-T-D-V] (H-[dR]KKR[dR]QRR[dR]G[Aib][Dab]T[Tle][Tle]TDV-OH)
Rabbit whole blood
  hemolysis rates: less than 5%
[1]; [4]
  AUC(0-inf): 24300 ng·h/mL
[1]; [5]
  MRT: 106 min
  Tmax: 21.6 min
  Cmax: 16900 ng/mL
[1]; male, SD, rat, plasma, 3 nmol/g, rats, intravenous bolus injection, enzyme inhibitor added immediately after blood collection, n = 3, read-out: T1/2 (converted)
  half-life: 69.6 min
[1]; [6]
  area under the curve (AUC) increase compared to NA-1: 19.4 fold
  half-life increase compared to NA-1: 29 fold
  maximum plasma concentration (Cmax) increase compared to NA-1: 2.3 fold
[1]; [7]
  AUClast/dose: 2239.6

## YGRKKRRQRRRKLSSIESDV [NA-1, YGRKKRRQR RRKLSSIESDV, reference compound]
Human PSD95-PDZ3
  EC50: > 1000 µM
Rabbit whole blood
  hemolysis rates: less than 5%
[1]; [4]
  Tmax: 12 min
[1]; male, SD, rat, in vivo, iv, 3 nmol/g, rats, intravenous bolus injection over 10 min, 3 nmol/g, n = 3
  Cmax: 3800 ng/mL
[1]; male, SD, rat, in vivo, iv, 3 nmol/g, rats, intravenous bolus injection, enzyme inhibitor added immediately after blood collection, n = 3
  Cmax: 7250 ng/mL
[1]; male, SD, rat, in vivo, rats, intravenous bolus injection over 10 min, 3 nmol/g, n = 3, read-out: T1/2 (converted)
  half-life: 2.4 min
[1]; [3]
  AUC(0-t): 309 ng·h/mL
  AUC(inf): 315 ng·h/mL
  AUClast/dose: 41
  MRTO-inf: 3.6 min
[1]; rats, intravenous bolus injection, 3 nmol/g (Table 5-1)
  half-lives: less than 3 min
[1]; [7]
  AUC(inf): 1248 ng·h/mL
  AUClast/dose: 184.0
  MRTO-inf: 13.2 min
  T1/2: 2.4 min
Human PSD95-PDZ2
  EC50: 0.083 µM
